Results reported in patent publication US20230065079A1, “FATTY ACID DERIVATIVE LABELED WITH POSITRON-EMITTING RADIONUCLIDE” (ASTELLAS PHARMA INC., priority 2020, published 2023).

Experiment: PET test using normal cynomolgus monkey (heart contrast PET, SUV in myocardium and bone ROI)
Format: in vivo
Conditions: for SUV (myocardium) 20 minutes / SUV (myocardium) 60 minutes / SUV (myocardium) 120 minutes / SUV (myocardium) 180 minutes / SUV (bone) 20 minutes / SUV (bone) 60 minutes / SUV (bone) 120 minutes / SUV (bone) 180 minutes: male normal cynomolgus monkey, about 300 MBq i.v.; for SUV (myocardium) 20 minutes / SUV (myocardium) 60 minutes / SUV (myocardium) 120 minutes / SUV (myocardium) 180 minutes: ROI myocardium, Examples 1 case, Reference Example 15 average ± standard error of 3 cases; for SUV (myocardium) 20 minutes / SUV (bone) 20 minutes: 0 to 20 minutes after administration; for SUV (myocardium) 60 minutes / SUV (bone) 60 minutes: 20-minute section ending 60 minutes after administration; for SUV (myocardium) 120 minutes / SUV (bone) 120 minutes: 20-minute section ending 120 minutes after administration; for SUV (myocardium) 180 minutes / SUV (bone) 180 minutes: 160 to 180 minutes after administration; for SUV (bone) 20 minutes / SUV (bone) 60 minutes / SUV (bone) 120 minutes / SUV (bone) 180 minutes: ROI bone (near the spine), n.d. = target organ cannot be confirmed in the image and ROI cannot be set
Source text: Solutions containing each compound prepared in Examples 1 to 7 and Reference Example 15 ([^18F]FTO) were used to perform a heart contrast PET test using normal cynomolgus monkeys.
For performing non-invasive PET imaging, in a state in which a male cynomolgus monkey was anesthetized with inhalation anesthetic isoflurane, the monkey was held at a supine body position on a PET camera SHR17000 (manufactured by Hamamatsu Photonics K.K.), the solution containing each compound (about 300 MBq) was administered from the lower extremity vein, and continuous imaging was performed for 180 minutes or more after the administration. The PET images were reconstructed by dynamic row-action maximum likelihood algorithm (DRAMA) and average images per each time section which is divided every 20 minutes from 0 minutes to 180 minutes after the administration, are obtained. Then, the region of interest (ROI) was set in the myocardium region or bone (near the spine), and the accumulation (standardized uptake value (SUV)) of each compound was calculated as {radioactivity count in the ROI (MBq/cc)/[dose (MBq)/body weight (g)]}.
The SUV values quantified by setting the ROI for the myocardium and the bone of each compound are shown in Tables 10 and 11 as SUV (myocardium) and SUV (bone). […] A case where the target organ cannot be confirmed in the image and the ROI cannot be set is denoted as n.d. The time in the Tables represents an end point of each time section, for example, “20 minutes” represents the SUV value from 0 minutes to 20 minutes after, and “180 minutes” represents the SUV value from 160 minutes to 180 minutes after the administration. In addition, Maximum Intensity Projection (MIP) PET images 60 minutes and 180 minutes after the administration of the compounds of Reference Example 15 ([…]) and Example 6 are shown in FIGS. 1A to 1D.

| non-specific accumulation to the bone (PET, normal cynomolgus monkey, result in words) | SUV (myocardium) 20 minutes | SUV (myocardium) 60 minutes | SUV (myocardium) 120 minutes | SUV (myocardium) 180 minutes | SUV (bone) 20 minutes | SUV (bone) 60 minutes | SUV (bone) 120 minutes | SUV (bone) 180 minutes | SMILES |
| --- | --- | --- | --- | --- | --- | --- | --- | --- | --- |
| not detected at all | 7.74 | 6.24 | 4.80 | 3.98 | – | – | – | – | CCCCCCCCC1CC1CC([18F])CCSCCC(=O)O (stereo not shown) [Example 6, 3-{[3-[^18F]fluoro-4-(2-octylcyclopropyl)butyl]sulfanyl}propanoic acid] |
| – | 4.87 | 4.13 | 3.21 | 2.80 | 0.87 | 0.69 | 0.75 | 0.79 | CC/C=C\C/C=C\C/C=C\CC([18F])CCSCCC(=O)O (stereo not shown) [Example 1, 3-{[(5Z,8Z,11Z)-3-[lSF]fluorotetradeca-5,8,11-trien-1-yl]sulfanyl}propanoic acid] |
| – | 6.65 | 5.44 | 4.38 | 3.92 | 1.57 | 1.13 | 1.27 | 1.51 | CCCCCCCCCCCC([18F])CCSCCC(=O)O (stereo not shown) [Example 4, 3-[(3-[^18F]fluorotetradecyl)sulfanyl]propanoic acid] |
| – | 6.45 ± 0.59 | 6.54 ± 0.51 | 5.90 ± 0.58 | 5.21 ± 0.59 | 1.42 ± 0.10 | 2.27 ± 0.13 | 3.82 ± 0.60 | 5.05 ± 0.99 | O=C(O)CCSCCCC/C=C\CCCCCCCC[18F] [Reference Example 15, 3-{[(5Z)-14-[^18F]fluorotetradec-5-en-1-yl]sulfanyl}propanoic acid, reference compound] |
| – | 7.40 | 7.53 | 6.74 | 5.92 | 1.40 | 1.05 | 1.34 | 1.14 | CCCCCCCCCC([18F])CCSCCC(=O)O (stereo not shown) [Example 2, 3-[(3-[^18F]fluorododecyl)sulfanyl]propanoic acid] |
| – | 5.75 | 3.20 | 2.80 | 2.41 | 2.12 | 2.00 | 2.07 | 2.08 | CCCCC/C=C\C/C=C\CC([18F])CCSCCC(=O)O (stereo not shown) [Example 3, 3-{[(5Z,8Z)-3-[^18F]fluorotetradeca-5,8-dien-1-yl]sulfanyl}propanoic acid] |
| – | 11.6 | 11.4 | 10.0 | 8.44 | 1.87 | 3.41 | 5.11 | 6.36 | CCCCCCCCC([18F])CCSCCCCC(=O)O (stereo not shown) [Example 7, 5-[(3-[^18F]fluoroundecyl)sulfanyl]pentanoic acid] |
| – | 6.84 | 6.13 | 5.16 | 5.09 | 1.45 | 1.36 | 1.28 | 1.40 | CCCCCCCC/C=C/CC([18F])CCSCCC(=O)O (stereo not shown) [Example 5, 3-{[(5E)-3-[^18F]fluorotetradec-5-en-1-yl]sulfanyl}propanoic acid] |
